The results in this text go back to ChEMBL document CHEMBL5223109, “The discovery of BMS-737 as a potent, CYP17 lyase-selective inhibitor for the treatment of castration-resistant prostate cancer” (Bioorg Med Chem Lett, 2022).

Structures are written as SMILES. Where only a bound is given, the exact number is not on record here.

One data set has as its target T1, Cytochrome P450 1A2 (Homo sapiens, UniProt P05177).
T1 sequence (P05177 whole entry): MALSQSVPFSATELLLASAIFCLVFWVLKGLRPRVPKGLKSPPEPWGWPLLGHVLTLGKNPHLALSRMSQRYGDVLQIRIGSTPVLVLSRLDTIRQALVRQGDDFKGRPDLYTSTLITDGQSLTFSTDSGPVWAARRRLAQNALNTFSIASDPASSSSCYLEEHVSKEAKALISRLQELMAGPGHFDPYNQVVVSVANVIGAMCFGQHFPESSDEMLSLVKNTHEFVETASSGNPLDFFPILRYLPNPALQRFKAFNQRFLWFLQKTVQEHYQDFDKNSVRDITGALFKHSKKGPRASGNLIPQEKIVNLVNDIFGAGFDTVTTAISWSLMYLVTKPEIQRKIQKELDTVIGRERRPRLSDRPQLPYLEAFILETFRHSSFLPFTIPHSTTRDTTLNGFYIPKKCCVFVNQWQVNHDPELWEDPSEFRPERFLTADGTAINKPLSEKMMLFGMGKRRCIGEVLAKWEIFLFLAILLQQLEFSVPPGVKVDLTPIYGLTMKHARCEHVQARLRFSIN
The data set can be described thus: Inhibition of CYP1A2 (unknown origin). It is filed as ADME.

Data set [1] concerns the target T2, Steroid 17-alpha-hydroxylase/17,20 lyase (Homo sapiens, UniProt P05093).
T2 sequence (P05093 whole entry): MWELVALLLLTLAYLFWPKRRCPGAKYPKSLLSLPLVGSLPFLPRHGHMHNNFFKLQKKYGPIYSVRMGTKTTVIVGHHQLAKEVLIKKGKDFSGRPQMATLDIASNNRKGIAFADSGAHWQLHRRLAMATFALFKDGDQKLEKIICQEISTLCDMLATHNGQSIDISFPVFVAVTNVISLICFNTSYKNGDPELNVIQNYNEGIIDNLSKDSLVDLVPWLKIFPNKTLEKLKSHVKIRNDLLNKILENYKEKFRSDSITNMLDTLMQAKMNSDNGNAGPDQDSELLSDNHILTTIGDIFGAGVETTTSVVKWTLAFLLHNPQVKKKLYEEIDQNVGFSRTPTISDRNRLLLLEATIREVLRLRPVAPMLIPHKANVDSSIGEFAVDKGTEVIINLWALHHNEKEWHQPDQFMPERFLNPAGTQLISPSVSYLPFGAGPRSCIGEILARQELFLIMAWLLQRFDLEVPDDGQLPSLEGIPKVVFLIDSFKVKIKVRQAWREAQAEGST
The data set can be described thus: Inhibition of human CYP17A1. It is filed as ADME.

The nature of data set [2]: Metabolic stability in dog liver microsomes assessed as parent compound remaining relative to control. It is filed as ADME, Canis lupus familiaris, Microsome. In general terms: Liver microsomes are vesicles of endoplasmic reticulum, rich in cytochrome P450 enzymes.
The nature of data set [3]: Oral bioavailability in cynomolgus monkey at 1 mg/kg. It is filed as ADME, organism-based, Macaca fascicularis. To be noted: in vivo.

As a reminder, the IC50 is the concentration at which inhibition is half-maximal. In general, bioavailability refers to dose-corrected exposure relative to a reference, in per cent. As to `Nc1ncncc1-c1ccnc2c1cnn2-c1ccc(F)cc1`, the half-inhibitory concentration (IC50) against Cytochrome P450 1A2 is above 40 µM; in data set [1], 0.016 µM. The Stability in data set [2] is given as 86%. The molecule also returned a bioavailability in data set [3] of 100%.
